Data published in publication PMC2642990, “The Glycogen-Binding Domain on the AMPK β Subunit Allows the Kinase to Act as a Glycogen Sensor” (Cell Metabolism, 2009).

Tests used:
[1] = target: T1, recombinant α1β1γ1 complex with β1 GBD mutations (W100G/W133A and others) (Rattus norvegicus, UniProt P80386, W100G/W133A); test: recombinant AMPK with GBD point mutations in β1, assayed in immunoprecipitates; format: biochemical; settings: 20 mM; Figure 5D
T1 construct: we made mutations in full-length β1 coexpressed with α1 and γ1 in CCL13 cells; made in house; host or cells: human CCL13 cells, co-transfected; isolated by anti-myc immunoprecipitation
From the text: To test whether mutations that interfered with the binding of glycogen to the GBD also affected inhibition of AMPK by glycogen, we made mutations in full-length β1 coexpressed with α1 and γ1 in CCL13 cells, isolated the complex by immunoprecipitation via the myc tag on α1, and assayed the kinase activity in the presence and absence of glycogen. The activities were adjusted to correct for slight variation in recovery of the α1 subunit assessed by blotting (inset in Figure 3A). […] Because all of these assays were conducted in resuspended immunoprecipitates, the degree of inhibition of the wild-type was < 50%, as discussed in the previous section. […]
Figure 3 Effect of β Subunit Mutations on Inhibition of Recombinant AMPK Complexes by Glycogen (A) Myc-α1, γ1, and β1 with the wild-type sequence or the indicated mutations were expressed in CCL13 cells, immunoprecipitated, and assayed ± bovine liver glycogen (200 mM glucose equivalents); results are mean ± SEM (n = 3). […] (C) Myc-α1, γ1, and β1 with the wild-type sequence or with W100G/W133A mutations were expressed in CCL13 cells, immunoprecipitated using anti-myc (left) or anti-FLAG (right) antibodies, and analyzed by western blotting using anti-myc antibodies (top panels) or a mixture of anti-β1 and -γ1 antibodies (bottom panels). […]

[2] = target: T2, rat AMPK-α1 kinase domain (Rattus norvegicus, UniProt P54645, T183D); test: kinase assay of bacterially expressed α1 kinase domain; format: biochemical; settings: bacterially expressed (GST fusion; T172D mutant); data not shown
T2 construct: a bacterially expressed GST fusion of the rat AMPK-α1 kinase domain; GST; made in house; host or cells: bacteria
T2 sequence (P54645 27-279 T183D): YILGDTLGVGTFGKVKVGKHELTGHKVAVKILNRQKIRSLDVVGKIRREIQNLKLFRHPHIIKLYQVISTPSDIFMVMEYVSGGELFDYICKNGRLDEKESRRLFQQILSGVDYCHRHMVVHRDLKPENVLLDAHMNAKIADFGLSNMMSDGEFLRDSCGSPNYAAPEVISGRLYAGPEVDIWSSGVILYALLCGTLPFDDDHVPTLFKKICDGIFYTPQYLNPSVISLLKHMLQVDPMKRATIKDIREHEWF

T1 sequence (P80386 2-270 W100G/W133A): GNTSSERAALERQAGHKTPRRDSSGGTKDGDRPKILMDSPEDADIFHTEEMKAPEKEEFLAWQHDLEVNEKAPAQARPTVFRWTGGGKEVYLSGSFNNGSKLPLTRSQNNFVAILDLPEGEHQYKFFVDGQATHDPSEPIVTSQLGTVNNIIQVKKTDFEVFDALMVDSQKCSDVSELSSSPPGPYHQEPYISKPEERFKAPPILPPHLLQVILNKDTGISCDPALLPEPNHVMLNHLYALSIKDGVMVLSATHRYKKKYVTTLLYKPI
T1 sequence (P54645 whole entry partner): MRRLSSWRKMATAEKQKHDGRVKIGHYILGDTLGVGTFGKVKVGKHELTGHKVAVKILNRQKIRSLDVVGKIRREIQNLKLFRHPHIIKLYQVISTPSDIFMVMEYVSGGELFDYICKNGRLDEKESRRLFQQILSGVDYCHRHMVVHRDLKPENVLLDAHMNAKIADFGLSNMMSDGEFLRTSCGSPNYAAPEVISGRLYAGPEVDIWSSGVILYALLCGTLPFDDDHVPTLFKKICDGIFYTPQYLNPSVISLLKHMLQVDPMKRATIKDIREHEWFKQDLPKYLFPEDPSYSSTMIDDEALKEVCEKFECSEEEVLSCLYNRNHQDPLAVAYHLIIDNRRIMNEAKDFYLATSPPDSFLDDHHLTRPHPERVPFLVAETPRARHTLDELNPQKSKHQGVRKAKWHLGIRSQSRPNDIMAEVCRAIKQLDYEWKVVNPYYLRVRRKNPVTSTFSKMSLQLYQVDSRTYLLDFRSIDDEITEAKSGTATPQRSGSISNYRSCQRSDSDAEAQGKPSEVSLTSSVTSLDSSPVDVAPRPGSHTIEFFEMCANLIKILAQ
T1 sequence (P80385 whole entry partner): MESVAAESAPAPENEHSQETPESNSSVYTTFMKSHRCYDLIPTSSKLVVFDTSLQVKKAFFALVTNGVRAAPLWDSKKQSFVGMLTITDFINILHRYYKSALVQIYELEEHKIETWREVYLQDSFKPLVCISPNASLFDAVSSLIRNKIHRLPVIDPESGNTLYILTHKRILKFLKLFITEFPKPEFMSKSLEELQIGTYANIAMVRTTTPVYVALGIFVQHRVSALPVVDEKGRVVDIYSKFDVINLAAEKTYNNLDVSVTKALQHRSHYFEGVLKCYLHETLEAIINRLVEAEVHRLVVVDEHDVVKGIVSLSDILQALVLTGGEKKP

With `OC[C@H]1O[C@H](OC[C@H]2OC(O)[C@H](O)[C@@H](O)[C@@H]2O)[C@H](O)[C@@H](O)[C@@H]1O` (some centres unmarked) [isomaltose] the “inhibition of W100G/W133A mutant” value [1] was “not” and the “inhibition of isolated α1 kinase domain” value [2] was “did not inhibit”.
